# Like-named read-outs stand apart in the source and are kept apart here.
# B1: interferon-γ: cytokine, 100 U/ml (protein, UniProt P01579 24-161, looked up)
# Interferon gamma: QDPYVKEAENLKKYFNAGHSDVADNGTLFLGILKNWKEESDRKIMQSQIVSFYFKLFKNFKDDQSIQKSVETIKEDMNVKFFNSNKKKRDDFEKLTNYSVTDLNVQRKAIHELIQVMAELSPAAKTGKRKRSQMLFRG
# B2: Il-10: cytokine strongly expressed in lepromatous lesions (protein, UniProt P22301 19-178, looked up)
# Interleukin-10: SPGQGTQSENSCTHFPGNLPNMLRDLRDAFSRVKTFFQMKDQLDNLLLKESLLEDFKGYLGCQALSEMIQFYLEEVMPQAENQDPDIKAHVNSLGENLKTLRLRLRRCHRFLPCENKSKAVEQVKNAFNKLQEKGIYKAMSEFDIFINYIEAYMTMKIRN
# Assays:
# T-cell line DN1 = format: cell-based, human; conditions: CD1+ APCs (GM-CSF- and IL-4-treated monocytes)
# [1] = in vivo; cited from earlier work
# [2] = system: peripheral blood monocytes; assay: CD1 expression on cytokine-cultured monocytes, flow cytometry; format: cell-based, human; conditions: for expression of CD1a, CD1b and CD1c on monocytes: monocytes cultured with cytokine, 60 hours
# T-cell line LDN4 = assay: Proliferation of CD1b-restricted line LDN4; format: cell-based, human
# T-cell line BDN2 = format: cell-based, human
# T-cell line OGD1 = assay: Proliferation assay, TCR γδ+ line OGD1; format: cell-based, human; conditions: activated monocytes, 3 day assay
# T-cell line OAB8 = assay: Proliferation assay, CD8+ TCR αβ+ line OAB8; format: cell-based, human; conditions: mycolic acid at 1 μg/ml
# T-cell line DN6 = assay: Proliferation assay, CD1c-restricted line DN6; format: cell-based, human; conditions: CD1+ APCs
# T-cell line DG.1 = format: cell-based, human; conditions: CD1+ PBMCs from HLA-DR7 positive individual as APCs
# [3] = system: T-cell lines SP-F3, CP.1.15, BK6; assay: Proliferation of further T-cell lines to test mitogenicity (SP-F3, CP.1.15, BK6); format: cell-based, human
molecule,measurement,setting,value
"6,6-trehalose dimycolate",proliferative response of T-cell line DN1 to antigen,T-cell line DN1,stimulated the proliferation
same,antibody formation,[1],enhance antibody formation
same,nonspecific immunity to bacterial infections and tumors,[1],stimulate nonspecific immunity
CCCCCCCCCCCCCCCCCCCCCC(=O)OC[C@H]1O[C@H](O[C@H]2O[C@H](COC(=O)CCCCCCCCCCCCCCCCCCCCC)[C@@H](O)[C@H](O)[C@H]2O)[C@H](O)[C@@H](O)[C@@H]1O [trehalose dibehanate],proliferative response of T-cell line DN1 to antigen,T-cell line DN1,no stimulation
GM-CSF: granulocyte/monocyte colony stimulating factor used alone,"expression of CD1a, CD1b and CD1c on monocytes",[2],somewhat less
lipoarabinomannan [LAM],proliferative response of LDN4 to antigen,T-cell line LDN4,proliferated
same,proliferative response of LDN4 to antigen,T-cell line LDN4; listed as Lep LAM,stimulated
same,proliferative response of LDN4 to antigen,T-cell line LDN4; listed as native LAM,striking T-cell proliferation
same,response of BDN2 to antigen,T-cell line BDN2,responded
mycolic acid,proliferative response of T-cell line DN1 to antigen,T-cell line DN1,recognized
same,response of OGD1 to antigen,T-cell line OGD1,recognized
same,response of OAB8 to antigen,T-cell line OAB8,recognized
same,recognition by T-cell line DN6 (proliferative response),T-cell line DN6,recognized only by CD1b-restricted DN1 T-cells
same,recognition by T-cell line DG.1 (proliferative response),T-cell line DG.1,recognized only by CD1b-restricted DN1 T-cells
same,"proliferative response of SP-F3, CP.1.15 and BK6",[3],did not respond
same,mitogenicity,[3]; six T-cell lines tested,not mitogenic
mycolic acid-arabinogalactan-peptidoglycan [mAGP],proliferative response of LDN4 to antigen,T-cell line LDN4,No response
phosphatidylinositol mannoside [PIM],proliferative response of LDN4 to antigen,T-cell line LDN4,ten-fold more than media alone
B1,"expression of CD1a, CD1b and CD1c on monocytes",[2],did not express significant levels
B2,inhibition of the expression of CD1 on monocytes,[2]; data not shown,could inhibit

# Reference: patent publication US7063844B2, “Presentation of hydrophobic antigens to T-cells by CD1 molecules” (The Brigham and Women's Hospital, Inc., priority 1992, dated 2006)
